Assay results taken from publication PMC4749225, “Azidobupramine, an Antidepressant-Derived Bifunctional Neurotransmitter Transporter Ligand Allowing Covalent Labeling and Attachment of Fluorophores” (PLoS ONE, 2016).
Where two headings read alike, the source gives them in different places.

Key:
rSERT [1] = target: T1, rSERT (Rattus norvegicus, UniProt P31652); assay: Radioligand binding assay (RBA), competition with [3H]-citalopram, membranes of T-REx-SERT cells; settings: for IC50: 0.5 nM [3H]-citalopram, 34°C, 60 min; for Ki: IC50 converted to Ki according to Cheng-Prusoff
T1 construct: expressed in transfected cells; host or cells: T-REx-SERT cells (T-REx 293 based, tetracycline-inducible), gift of C.G. Tate
T1 sequence (P31652 whole entry): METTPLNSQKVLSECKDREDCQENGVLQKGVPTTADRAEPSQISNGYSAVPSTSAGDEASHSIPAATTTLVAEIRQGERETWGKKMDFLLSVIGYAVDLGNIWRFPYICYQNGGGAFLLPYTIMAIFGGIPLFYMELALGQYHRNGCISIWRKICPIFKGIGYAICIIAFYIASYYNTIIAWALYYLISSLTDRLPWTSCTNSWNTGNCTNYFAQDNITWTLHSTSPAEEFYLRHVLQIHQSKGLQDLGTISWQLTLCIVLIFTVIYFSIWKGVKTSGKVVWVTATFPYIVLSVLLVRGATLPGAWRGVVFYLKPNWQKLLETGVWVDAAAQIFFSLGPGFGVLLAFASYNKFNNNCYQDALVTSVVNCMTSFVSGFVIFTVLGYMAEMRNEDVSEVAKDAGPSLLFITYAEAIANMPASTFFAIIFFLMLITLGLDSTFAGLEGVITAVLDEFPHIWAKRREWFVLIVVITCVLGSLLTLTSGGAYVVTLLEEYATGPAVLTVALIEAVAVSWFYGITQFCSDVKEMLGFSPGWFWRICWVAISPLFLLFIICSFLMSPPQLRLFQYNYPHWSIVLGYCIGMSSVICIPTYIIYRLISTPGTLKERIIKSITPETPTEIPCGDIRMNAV
Experimental: Tetracycline induced T-REx-SERT cells were mechanically disrupted with a hypotonic Tris-buffer (50 mM Tris, pH 7.9, proteinase inhibitor) in a two step procedure: dounce-homogenisation (Potter S, B.Braun, Melsungen, Germany) followed by an ultrasound treatment (sonifier W-250, Branson, CT, USA). Homogenates were centrifuged first at 800 rcf (10’, 4°C), followed by a second centrifugation step at 100,000 rcf (60’, 4°C). The resulting pellet was re-suspended in reaction-buffer RB1 (50 mM Tris-HCl, 150 mM NaCl, 5 mM KCl, proteinase inhibitor, pH 7.9), and stored at -80°C after protein determination (Pierce® BCA Protein Assay, Thermo Scientific, IL, USA).
Drugs were diluted in DMSO as solvent. Incubation was carried out at 34°C for 60’, and terminated by rapid filtration over polyethyleneimine preincubated GF/C filters using a Brandell MWXR-97TI cell harvester (Gaithersburg, MD, USA). Filters were washed three times with 2 ml of ice cold reaction-buffer RB1 and then incubated with scintillation liquid; radioactivity was measured by beta counting (MicroBeta, PerkinElmer LAS, Boston, MA, USA).

rSERT [2] = target: T1, rSERT; assay: PAL of 17 in living T-REx-SERT cells followed by CuAAC rhodamine labelling, with competitor; format: cell-based; settings: 17 10 μM; UV-light 312 nm
Experimental: T-REx-SERT cells expressing rSERT-His10-FLAG were kindly provided by C.G. Tate (MRC Laboratory of Molecular Biology, Cambridge, UK) [27]; cells were cultivated in suspension (FreeStyle™ 293 Expression medium, 10% FBS, antibiotic-antimycotic, and pyruvate); for selection purpose, 5 μg/ml blasticidin and 200 μg/ml zeocin were used; expression was induced by adding 1 μg/ml tetracycline for 5 days.
(§2) For all these experiments, rSERT was chosen as model target. The PAL-reaction was conducted either using rSERT-enriched protein material or living cells. In both cases, the subsequent CuAAC-reaction took place after the double-tagged rSERT-His10-FLAG was immobilized on ANTI-FLAG® M2 Affinity-gel (SigmaAldrich, MO, USA).
This was followed by UV-light induced covalent linkage (312 nm, 2x 60”, RT). The further processing was as described above, i.e. membrane preparation, solubilization and immobilization of rSERT to ANTI-FLAG® M2 Affinity-gel, CuAAC-reaction followed by protein elution, and SDS-PAGE.
Within the fluorescence based interaction studies of 17 with rSERT, the fluorescence signal was recorded with the ChemiDoc MP detection-system and analyzed using ImageLab (BioRad, CA, USA); for quantification, only those fluorescent signals were taken that correspond to Western blot verified rSERT (between 70-100 kDa). Recorded fluorescent signals were normalized to the Western-blot signal of rSERT. […]

hDAT = target: T2, hDAT (Homo sapiens, UniProt Q01959); assay: Competitive MS Binding Assay (MSBA), (1R,3S)-indatraline as marker, HEK293 membrane fractions
T2 construct: expressed in transfected cells
T2 sequence (Q01959 whole entry): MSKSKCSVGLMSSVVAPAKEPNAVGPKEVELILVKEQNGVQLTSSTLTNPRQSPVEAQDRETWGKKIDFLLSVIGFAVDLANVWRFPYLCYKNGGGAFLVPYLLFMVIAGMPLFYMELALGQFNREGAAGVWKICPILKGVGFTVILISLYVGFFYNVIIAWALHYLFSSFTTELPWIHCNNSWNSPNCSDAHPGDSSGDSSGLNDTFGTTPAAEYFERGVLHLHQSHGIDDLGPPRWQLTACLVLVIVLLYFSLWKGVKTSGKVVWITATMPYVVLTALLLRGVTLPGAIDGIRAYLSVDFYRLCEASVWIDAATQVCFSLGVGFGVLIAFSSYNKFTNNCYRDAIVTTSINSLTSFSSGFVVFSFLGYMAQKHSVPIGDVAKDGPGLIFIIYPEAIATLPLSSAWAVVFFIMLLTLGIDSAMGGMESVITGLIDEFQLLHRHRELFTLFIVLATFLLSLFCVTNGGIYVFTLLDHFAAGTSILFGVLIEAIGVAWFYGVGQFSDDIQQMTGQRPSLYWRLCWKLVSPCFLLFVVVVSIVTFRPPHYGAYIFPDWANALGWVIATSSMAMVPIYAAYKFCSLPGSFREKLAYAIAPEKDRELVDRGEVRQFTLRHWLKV
Experimental: (§1) Competitive MSBAs to characterize the affinity of test compounds employing (1R,3S)-indatraline as a marker for hDAT, hNET and hSERT, respectively, were performed exactly as described by Grimm et al.. For this purpose, membrane fractions obtained from HEK293 cell lines stably expressing the corresponding target protein were incubated in presence of a fixed concentration of (1R,3S)-indatraline together with varying concentrations of test compounds in 96 well plates. After separation of the non-bound marker by vacuum filtration from the binding samples, bound (1R,3S)-indatraline remaining on the filter was eluted with acetonitrile (containing internal standard) and quantified by LC-ESI-MS/MS. Subsequently, inhibition of (1R,3S)-indatraline binding caused by test compounds could be analyzed essentially in the same way as described for radioligand binding assays.

hSERT = target: T3, hSERT (Homo sapiens, UniProt P31645); assay: as above
T3 construct: expressed in transfected cells
T3 sequence (P31645 whole entry): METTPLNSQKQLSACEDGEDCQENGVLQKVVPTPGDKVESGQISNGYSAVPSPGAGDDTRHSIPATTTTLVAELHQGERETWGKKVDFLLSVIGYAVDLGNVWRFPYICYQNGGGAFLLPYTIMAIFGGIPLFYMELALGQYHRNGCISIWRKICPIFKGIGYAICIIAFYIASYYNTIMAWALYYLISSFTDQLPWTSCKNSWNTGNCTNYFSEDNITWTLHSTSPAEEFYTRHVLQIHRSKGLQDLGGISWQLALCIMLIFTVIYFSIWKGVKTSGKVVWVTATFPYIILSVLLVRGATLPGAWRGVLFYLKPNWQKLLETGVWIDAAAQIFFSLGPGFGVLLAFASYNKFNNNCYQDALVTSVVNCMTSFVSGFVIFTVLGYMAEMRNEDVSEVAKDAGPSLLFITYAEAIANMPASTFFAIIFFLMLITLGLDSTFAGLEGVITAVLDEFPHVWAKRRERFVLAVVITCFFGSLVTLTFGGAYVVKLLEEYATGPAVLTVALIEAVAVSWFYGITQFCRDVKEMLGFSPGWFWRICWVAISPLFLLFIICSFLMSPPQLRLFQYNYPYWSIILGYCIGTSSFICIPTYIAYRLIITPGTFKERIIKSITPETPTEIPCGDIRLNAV
Experimental: as §1

hNET = target: T4, hNET (Homo sapiens, UniProt P23975); assay: as above; settings: read-out: Ki, NET
T4 construct: expressed in transfected cells
T4 sequence (P23975 whole entry): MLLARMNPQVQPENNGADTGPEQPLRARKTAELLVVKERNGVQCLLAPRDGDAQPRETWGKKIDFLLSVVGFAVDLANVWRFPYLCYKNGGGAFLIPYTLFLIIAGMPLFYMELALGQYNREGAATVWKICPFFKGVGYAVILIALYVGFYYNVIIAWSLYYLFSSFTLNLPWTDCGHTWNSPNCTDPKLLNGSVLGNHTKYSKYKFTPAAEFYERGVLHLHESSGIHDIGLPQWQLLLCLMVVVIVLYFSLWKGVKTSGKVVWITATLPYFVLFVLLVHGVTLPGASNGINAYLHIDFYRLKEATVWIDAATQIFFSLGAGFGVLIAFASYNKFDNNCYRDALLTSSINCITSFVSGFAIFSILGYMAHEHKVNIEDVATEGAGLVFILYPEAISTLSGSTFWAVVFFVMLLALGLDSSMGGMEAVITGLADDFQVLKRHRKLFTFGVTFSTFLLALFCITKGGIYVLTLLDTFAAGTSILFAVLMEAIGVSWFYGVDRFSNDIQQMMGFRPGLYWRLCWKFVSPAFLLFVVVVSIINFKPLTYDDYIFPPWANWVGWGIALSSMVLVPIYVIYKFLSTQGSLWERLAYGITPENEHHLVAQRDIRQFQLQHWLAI
Experimental: as §1

rSERT [3] = target: T1, rSERT; assay: PAL and CuAAC fluorescence assay of 17 on rSERT-enriched material immobilized on ANTI-FLAG M2 affinity gel, with competitors; format: binding; settings: for decrease in binding signal of 17 at enriched rSERT by competitor: 17 1 μM, competitor 1 mM (1000 fold molar excess), PAL then CuAAC rhodamine fluorescence
Experimental: as §2
For the interaction analysis of azidobupramine (17) with rSERT-enriched material, 1 mg of membrane preparation was solubilized in reaction-buffer RB3 (52.6 mM Tris/HCl, 126.4 mM NaCl, 5.26 mM KCl, 1% Triton X-100, proteinase inhibitor, pH 7.9). Then rSERT was immobilized on ANTI-FLAG® M2 Affinity-gel (over night, 4°C, constant agitation), and unbound protein was removed by three washing steps with reaction-buffer RB4 (25 mM HEPES/NaOH, 126.4 mM NaCl, 5.26 mM KCl, proteinase inhibitor, pH 7.9). […] This was followed by UV-light exposure (312 nm, 2x 45”, RT) using the Dual Transilluminator from Stratagene (5x8 Watt, La Jolla, CA, USA), and copper mediated click reaction (60 μM Rhodamine-azide, 2.5 mM ascorbic acid, 250 μM CuSO4, and 500 μM bis[(tertbutyltriazoyl)methyl]-[(2-carboxymethyltriazoyl)methyl]amine (BTTAA), 60’, RT, constant agitation) [31].
Within the fluorescence based interaction studies of 17 with rSERT, the fluorescence signal was recorded with the ChemiDoc MP detection-system and analyzed using ImageLab (BioRad, CA, USA); for quantification, only those fluorescent signals were taken that correspond to Western blot verified rSERT (between 70-100 kDa). Recorded fluorescent signals were normalized to the Western-blot signal of rSERT.

## CN(CCCN1c2ccccc2CCc2ccccc21)CC(=O)c1ccc(Cl)cc1 [compound 5, lofepramine, reference compound]
rSERT [1]
  IC50: 1550 nM
  Ki: 1120 nM

## CN(C)CCCN1c2ccccc2CCc2ccc(N=[N+]=[N-])cc21 [compound 11, 3-(3-azido-10,11-dihydro-5H-dibenzo[b,f]azepin-5-yl)-N,N-dimethyl propan-1-amine]
rSERT [1]
  IC50: 12 nM
  Ki: 8.82 nM

## CNCCCN1c2ccccc2CCc2ccc(N=[N+]=[N-])cc21 [compound 15, 3-(3-azido-10,11-dihydro-5H-dibenzo[b,f]azepin-5-yl)-N-methylpro-pan-1-amine]
rSERT [1]
  IC50: 85.1 nM
  Ki: 62.4 nM

## C#CCCN(C)CCCN1c2ccccc2CCc2ccc(N=[N+]=[N-])cc21 [compound 17, N-(3-(3-azido-10,11-dihydro-5H-dibenzo[b,f]azepin-5-yl)propyl)-N-methylbut-3-yn-1-amine]
rSERT [2]
  covalent labelling of rSERT in living cells: forms covalent bonds with rSERT after UV-light exposure in living cells
hDAT; read-out: Ki, DAT
  Ki: 1640 nM
hDAT; three independent experiments, each in triplicates, read-out: pKi ±SEM, DAT (converted)
  Ki: 1580 nM
hSERT; Ki 103 nM (MSBA, human) vs 22.2 nM (RBA, rat)
  drop in affinity to SERT, MSBA versus RBA: 4.6 fold
hSERT; MSBA, read-out: Ki, SERT
  Ki: 103 nM
hNET
  Ki: 115 nM
rSERT [3]; rSERT-enriched material, UV-light 312 nm
  covalent labelling of rSERT by PAL and visualization by CuAAC: interacts predominantly with rSERT
rSERT [1]
  IC50: 30.2 nM
  Ki: 22.2 nM

## CN1CCN2c3ncccc3Cc3ccccc3C2C1 (centres unmarked) [mirtazapine]
rSERT [3]
  decrease in binding signal of 17 at enriched rSERT by competitor: does not
rSERT [3]; listed as MRT
  decrease in binding signal of 17 at enriched rSERT by competitor: no effect
